Data as given in the NIST ThermoML archive (doi:10.1016/j.jct.2011.02.006).
± gives the expanded uncertainty stated by the source.

Tests used:
[1] = Molar enthalpy of transition or fusion; settings: Crystal; DSC
[2] = for viscosity / mass density: 101.33 kPa, Liquid; for viscosity: Falling or rolling sphere viscometry; for mass density: Vibrating tube method

For `CCCC[n+]1ccc2ccccc2c1.O=S(=O)([N-]S(=O)(=O)C(F)(F)F)C(F)(F)F` [2-butylisoquinolinium bis[(trifluoromethyl)sulfonyl]amide], the “Molar enthalpy of transition or fusion” value [1] was 11 ± 0.237 kcal/mol, the viscosity ([2]; 323.2 K) was 71.07 ± 3.3 mPa·s and the mass density ([2]; 323.2 K) was 1413.21 ± 6.9 kg/m3. It also gave a viscosity ([2]; 328.2 K) of 56.23 ± 2.5 mPa·s, a mass density ([2]; 328.2 K) of 1408.78 ± 6.9 kg/m3 and a viscosity ([2]; 333.2 K) of 45.14 ± 2.1 mPa·s. For the same compound, the mass density ([2]; 333.2 K) was 1404.32 ± 6.8 kg/m3, the viscosity ([2]; 338.2 K) was 38.46 ± 1.7 mPa·s and the mass density ([2]; 338.2 K) was 1399.88 ± 6.8 kg/m3. For the same compound, the viscosity ([2]; 343.2 K) was 32.08 ± 1.5 mPa·s, the mass density ([2]; 343.2 K) was 1395.47 ± 6.7 kg/m3 and the viscosity ([2]; 348.2 K) was 27.1 ± 1.2 mPa·s. For the same compound, the mass density ([2]; 348.2 K) was 1391.06 ± 6.7 kg/m3, the viscosity ([2]; 353.2 K) was 23.02 ± 1 mPa·s and the mass density ([2]; 353.2 K) was 1386.66 ± 6.7 kg/m3. It also gave a viscosity ([2]; 358.2 K) of 19.87 ± 0.9 mPa·s, a mass density ([2]; 358.2 K) of 1382.26 ± 6.6 kg/m3 and a viscosity ([2]; 363.2 K) of 16.14 ± 0.73 mPa·s. The mass density ([2]; 363.2 K) was 1377.88 ± 6.6 kg/m3, the Normal melting temperature ([2]; Crystal, DTA) was 48 ± 0.39 °C and the Glass transition temperature ([2]; Glass, DTA) was -55.2 ± 1.1 °C.
